What was measured:
Rattus norvegicus [1] = species on record: Rattus norvegicus; test: Inhibition of rat liver lysosomal alpha-galactosidase at 1000 uM by spectrophotometry
Rattus norvegicus [2] = species on record: Rattus norvegicus; test: Inhibition of rat liver lysosomal beta-glucosidase at 1000 uM by spectrophotometry
Oryza sativa = test: Inhibition of rice alpha-glucosidase at 1000 uM by glucose B-test
Rattus norvegicus [3] = species on record: Rattus norvegicus; test: Inhibition of rat liver beta-galactosidase at 1000 uM by spectrophotometry
Coffea arabica = test: Inhibition of green coffee bean alpha-galactosidase at 1000 uM by spectrophotometry
Bos taurus = species on record: Bos taurus; test: Inhibition of bovine liver beta-galactosidase at 1000 uM by spectrophotometry
[4] = molecular target: Sucrase-isomaltase, intestinal (Rattus norvegicus) (UniProt P23739); test: Inhibition of Wistar rat intestinal isomaltase at 1000 uM by glucose B-test
Prunus dulcis = test: Inhibition of almond beta-glucosidase at 1000 uM by spectrophotometry
Rattus norvegicus [5] = species on record: Rattus norvegicus; test: Inhibition of Wistar rat intestinal cellobiase at 1000 uM by glucose B-test
[6] = Inhibition of rice alpha-glucosidase by glucose B-test; set-up: species or system Oryza sativa
[7] = Inhibition of rat liver beta-galactosidase by spectrophotometry
[8] = Inhibition of green coffee bean alpha-galactosidase by spectrophotometry; set-up: species or system Coffea arabica
[9] = molecular target: Sucrase-isomaltase, intestinal (Rattus norvegicus, UniProt P23739); test: Inhibition of Wistar rat intestinal isomaltase by glucose B-test
[10] = Inhibition of bovine liver beta-galactosidase by spectrophotometry; set-up: species or system Bos taurus
[11] = Inhibition of almond beta-glucosidase by spectrophotometry; set-up: species or system Prunus dulcis
[12] = Inhibition of Wistar rat intestinal cellobiase by glucose B-test
[13] = Inhibition of rat liver lysosomal beta-glucosidase by spectrophotometry

Sequence of Sucrase-isomaltase, intestinal (Rattus norvegicus) (P23739 1-1013 limits assumed): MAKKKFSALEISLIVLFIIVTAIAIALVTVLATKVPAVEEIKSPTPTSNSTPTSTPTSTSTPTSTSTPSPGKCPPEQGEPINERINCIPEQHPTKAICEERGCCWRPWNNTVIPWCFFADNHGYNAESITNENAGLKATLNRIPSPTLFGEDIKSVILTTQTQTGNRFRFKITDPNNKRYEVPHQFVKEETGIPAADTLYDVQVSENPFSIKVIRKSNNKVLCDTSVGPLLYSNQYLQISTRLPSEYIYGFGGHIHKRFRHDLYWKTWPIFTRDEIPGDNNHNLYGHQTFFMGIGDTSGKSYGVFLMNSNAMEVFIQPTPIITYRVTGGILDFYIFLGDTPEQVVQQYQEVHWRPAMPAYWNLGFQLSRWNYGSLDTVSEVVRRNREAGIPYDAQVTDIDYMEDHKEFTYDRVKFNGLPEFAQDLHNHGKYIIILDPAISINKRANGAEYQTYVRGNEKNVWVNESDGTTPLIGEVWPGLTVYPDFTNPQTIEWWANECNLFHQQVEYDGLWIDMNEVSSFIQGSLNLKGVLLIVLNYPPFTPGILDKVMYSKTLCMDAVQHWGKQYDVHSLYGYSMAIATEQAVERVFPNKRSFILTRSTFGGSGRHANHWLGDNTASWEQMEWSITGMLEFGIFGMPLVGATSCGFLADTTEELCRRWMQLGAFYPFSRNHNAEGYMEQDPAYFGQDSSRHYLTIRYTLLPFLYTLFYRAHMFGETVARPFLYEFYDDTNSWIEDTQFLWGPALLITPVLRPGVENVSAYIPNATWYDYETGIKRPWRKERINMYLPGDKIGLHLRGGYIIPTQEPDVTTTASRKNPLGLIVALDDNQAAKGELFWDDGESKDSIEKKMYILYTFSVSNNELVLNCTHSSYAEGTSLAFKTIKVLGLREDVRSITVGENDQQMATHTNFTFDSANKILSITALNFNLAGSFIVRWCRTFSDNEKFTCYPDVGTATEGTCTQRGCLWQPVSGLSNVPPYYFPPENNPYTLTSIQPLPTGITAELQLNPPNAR
Sequence of Sucrase-isomaltase, intestinal (Rattus norvegicus) (P23739 1014-1841 limits assumed): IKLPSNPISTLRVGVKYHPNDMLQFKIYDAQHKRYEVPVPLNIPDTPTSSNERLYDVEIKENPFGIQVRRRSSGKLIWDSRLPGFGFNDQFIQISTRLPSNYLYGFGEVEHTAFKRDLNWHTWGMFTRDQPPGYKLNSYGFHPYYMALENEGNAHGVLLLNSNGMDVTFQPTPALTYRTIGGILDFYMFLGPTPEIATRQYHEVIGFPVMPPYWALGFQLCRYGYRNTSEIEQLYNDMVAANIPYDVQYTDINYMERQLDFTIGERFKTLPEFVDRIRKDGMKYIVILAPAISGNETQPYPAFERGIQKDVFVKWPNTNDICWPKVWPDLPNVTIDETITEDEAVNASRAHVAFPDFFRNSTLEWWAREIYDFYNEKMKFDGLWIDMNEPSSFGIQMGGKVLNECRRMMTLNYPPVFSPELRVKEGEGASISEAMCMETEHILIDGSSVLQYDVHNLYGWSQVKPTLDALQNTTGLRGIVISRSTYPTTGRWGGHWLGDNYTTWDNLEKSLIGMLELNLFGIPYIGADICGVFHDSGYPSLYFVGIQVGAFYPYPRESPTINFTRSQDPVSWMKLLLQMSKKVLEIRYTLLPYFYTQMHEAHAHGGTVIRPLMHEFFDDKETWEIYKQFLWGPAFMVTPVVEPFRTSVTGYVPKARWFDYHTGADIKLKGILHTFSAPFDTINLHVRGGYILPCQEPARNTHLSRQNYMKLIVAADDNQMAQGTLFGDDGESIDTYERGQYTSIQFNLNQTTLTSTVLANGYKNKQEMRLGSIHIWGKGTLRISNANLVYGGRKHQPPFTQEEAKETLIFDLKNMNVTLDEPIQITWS
Sequence of Sucrase-isomaltase, intestinal (P23739 1-1013 limits assumed): as the sequence (P23739 1-1013 limits assumed) above
Sequence of Sucrase-isomaltase, intestinal (P23739 1014-1841 limits assumed): as the sequence (P23739 1014-1841 limits assumed) above

| Structure (SMILES) | inhibition (Rattus norvegicus [1]) | inhibition (Rattus norvegicus [2]) | inhibition (Oryza sativa) | inhibition (Rattus norvegicus [3]) | inhibition (Coffea arabica) | inhibition (Bos taurus) | inhibition [4] | inhibition (Prunus dulcis) | inhibition (Rattus norvegicus [5]) | IC50 [6] | IC50 [7] | IC50 [8] | IC50 [9] | IC50 [10] | IC50 [11] | IC50 [12] | IC50 [13] |
| --- | --- | --- | --- | --- | --- | --- | --- | --- | --- | --- | --- | --- | --- | --- | --- | --- | --- |
| OC[C@H]1NCC[C@@H](O[C@@H]2O[C@H](CO)[C@@H](O)[C@H](O)[C@H]2O)[C@@H]1O | < 50% | < 50% | < 50% | < 50% | < 50% | < 50% | < 50% | < 50% | < 50% | – | – | – | – | – | – | – | – |
| OC[C@H]1NCC[C@@H](O)[C@@H]1O[C@@H]1O[C@H](CO)[C@@H](O)[C@H](O)[C@H]1O | < 50% | < 50% | < 50% | < 50% | < 50% | < 50% | < 50% | < 50% | < 50% | – | – | – | – | – | – | – | – |
| OC[C@H]1NCC[C@@H](O)[C@@H]1O [FAGOMINE] | < 50% | < 50% | – | – | – | – | – | < 50% | < 50% | 320 µM | 15 µM | 56 µM | 46 µM | – | – | – | – |
| OC[C@H]1NCC[C@H](O)[C@H]1O | < 50% | < 50% | < 50% | < 50% | < 50% | < 50% | < 50% | < 50% | < 50% | – | – | – | – | – | – | – | – |
| OC[C@H]1NCC[C@H](O)[C@@H]1O | < 50% | – | – | – | < 50% | – | – | – | – | 120 µM | 4 µM | – | 6 µM | 3 µM | 120 µM | 100 µM | 740 µM |
